One series has as its system Kv1.5. The conditions noted are these: in Figure 2, no reference given, cited from earlier work.
The target in a further series is hKv1.5 potassium channel (Homo sapiens, UniProt P22460). Nature of the series: Whole-cell patch clamp assay on HEK 293 cells stably expressing hKv1.5. As to conditions: hKv1.5 IC50, whole-cell patch clamp, HEK 293 cells expressing hKv1.5, 25 °C, mean ± SD.
Series [1] in a line: Single-dose pharmacokinetics study. The class given is in vivo. The conditions noted are these: beagle dogs, mean ± SD, n = 6.
The test system of the next series is guinea pigs. The experiment in a line: Preliminary safety evaluation by 12-lead electrocardiogram. The class given is in vivo.
Series [2] concerns SD rats. Nature of the series: CaCl2-ACh induced AF model. Type of series: in vivo, rat.
The test system of series [3] is SD rats. Type of series: in vivo, rat.
Setting [4] is: both sexes, beagle, dog, plasma, iv, 1 mg/kg, i.v. 1.00 mg/kg.
Where [5] appears, read: cumulative i.v. 3 × 10^−7 to 3 × 10^−5 mol/kg.

Counter-ions that a name gives are not always drawn. Like-named read-outs stand apart in the source and are kept apart here.

hKv1.5 potassium channel, sequence (P22460 whole entry): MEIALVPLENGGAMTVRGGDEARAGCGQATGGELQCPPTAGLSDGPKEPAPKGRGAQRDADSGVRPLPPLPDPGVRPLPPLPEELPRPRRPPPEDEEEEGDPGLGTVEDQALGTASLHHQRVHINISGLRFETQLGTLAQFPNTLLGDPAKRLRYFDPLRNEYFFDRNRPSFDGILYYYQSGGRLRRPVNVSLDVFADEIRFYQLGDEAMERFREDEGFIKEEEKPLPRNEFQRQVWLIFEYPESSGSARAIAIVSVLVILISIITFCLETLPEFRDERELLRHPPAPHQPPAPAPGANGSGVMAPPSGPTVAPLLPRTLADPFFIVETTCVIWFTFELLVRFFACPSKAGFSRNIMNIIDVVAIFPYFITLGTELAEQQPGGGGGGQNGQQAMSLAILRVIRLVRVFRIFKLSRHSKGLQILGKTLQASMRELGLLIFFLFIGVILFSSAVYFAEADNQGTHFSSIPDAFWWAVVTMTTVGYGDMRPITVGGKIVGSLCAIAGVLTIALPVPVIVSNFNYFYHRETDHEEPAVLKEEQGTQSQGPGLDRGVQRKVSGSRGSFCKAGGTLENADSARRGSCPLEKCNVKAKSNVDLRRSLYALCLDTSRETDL

As to `COc1ccc(CC(=O)NCc2ccccc2-c2ccccc2C(=O)NCCc2cccnc2)cc1` [AVE-0118], the IC50 in the series with Kv1.5 (known Kv1.5 inhibitors) is 1.1 µM.

Molecule `COc1ccc(NC(=O)C2CCN(Cc3ccccc3)CC2)cc1` [DDO-02001, 1-benzyl-N-(4-methoxyphenyl) piperidine-4-carboxamide] gave a half-inhibitory concentration (IC50) at hKv1.5 potassium channel of 17.7 µM.

Molecule `COc1ccc(NC(=O)C2CCN(Cc3nc4ccccc4o3)CC2)cc1` [DDO-02002, 1-(benzo[d]oxazol-2-ylmethyl)-N-(4-methoxyphenyl) piperidine-4-carboxamide] displayed a melting point of 190 to 194 °C. On hKv1.5 potassium channel, it took 8.96 ± 1.15 µM to reach half-maximal inhibition (IC50).

In turn, `Cl.Cl.c1ccc(CNC2CCN(Cc3nc4ccccc4o3)CC2)cc1` [DDO-02004, 1-(benzo[d]oxazol-2-ylmethyl)-N-benzylpiperidin-4-amine dihydrochloride] showed a melting point greater than 250 °C. The molecule also yielded an IC50 at hKv1.5 potassium channel of 0.95 ± 0.13 µM.

In series [1] (i.v. 1.00 mg/kg, 1 mg/kg), `COc1ccc(CNC2CCN(Cc3nc4ccccc4o3)CC2)cc1.Cl.Cl` [DDO-02005, 1-(benzo[d]oxazol-2-ylmethyl)-N-(4-methoxybenzyl)piperidin-4-amine dihydrochloride] had a CL of 97.2 ± 24 mL/min/kg. This molecule also yielded a CL in series [1] (p.o. 1.25 mg/kg) of 608.5 ± 42.3 mL/min/kg. In series [1] (p.o. 1.25 mg/kg, 1.25 mg/kg), this molecule displayed a Cmax of 1.27 ± 0.40 ng/mL and a t1/2 of 6.25 ± 2.40 h. Besides, in series [1] (setting [4]), the clearance is 97.2 mL/min/kg and the half-life is 3.23 ± 1.07 h. The peak concentration (Cmax) in series [1] (both sexes, beagle, dog, plasma, iv, 1 mg/kg, i.v. 1.00 mg/kg, read-out: Cmax) was determined as 90.2 ± 28.8 ng/mL. In series [1] (both sexes, beagle, dog, plasma, po, 1.25 mg/kg, p.o. 1.25 mg/kg), this molecule showed a half-life of 6.25 h. In addition, the Cmax in series [1] (both sexes, beagle, dog, plasma, po, 1.25 mg/kg, p.o. 1.25 mg/kg, read-out: Cmax) was 1.27 ng/mL. The same molecule returned an AUC(0-t) in series [1] (both sexes, dog, plasma, iv, i.v. 1.00 mg/kg) of 178 ± 39.3 ng·h/mL. For the same molecule, the AUC(0-t) in series [1] (both sexes, dog, plasma, po, p.o. 1.25 mg/kg) stood at 4.41 ± 0.69 ng·h/mL. At hKv1.5 potassium channel, this molecule returned a half-maximal inhibitory concentration (IC50) of 0.72 ± 0.08 µM. Also, the “overall preliminary safety compared with Azimilide” value with guinea pigs (12-lead electrocardiogram) is recorded as “safer than Azimilide”. Besides, in the series with guinea pigs (setting [5]), the “effect on QT dispersion (QTd), compared with Azimilide” value is “less effect”; the “effect on QTcd, compared with Azimilide” value is listed as “less effect”; the “heart rate of guinea pigs” value was “slowed down obviously”; the “heart rate, compared with Azimilide” value is “no statistically significant differences”. Further, in the series on guinea pigs (setting [5]), the “prolonging QT interval, compared with Azimilide” value was “no statistically significant differences” and the “prolonging QTc interval, compared with Azimilide” value is “no statistically significant differences”. In the series with SD rats [2] (AF rats, 2.5 mg/kg i.p.), the “atrial ERP (AERP)” value is “increased to normal level” and the “ventricle ERP (VERP)” value is listed as “increased to normal level”. Moreover, the “duration of AF” value in the series on SD rats [2] (rats, 0.625, 1.25, 2.5 mg/kg i.p., Day 4 to Day 7) was “shortened significantly”. In the series with SD rats [2] (rats, dronedarone 1.25 mg/kg i.p. as positive control), the “AF therapeutic effect compared with dronedarone” value is “better than that of dronedarone”. Moreover, the “increase of aconitine required to cause arrhythmia versus model group” value (shortened to “increase of aconitine required”) in the series with SD rats [3] (0.1 mg/kg i.v.) is recorded as 2%. Moreover, the “increase of aconitine required” value in the series with SD rats [3] (1 mg/kg i.v.) is on record as 53%. Moreover, the “increase of aconitine required” value in the series on SD rats [3] (3 mg/kg i.v.) was 56%. In addition, in the series on SD rats [3] (9 mg/kg i.v.), the “increase of aconitine required” value is on record as 60%.

In turn, `Fc1ccc(CNC2CCN(Cc3nc4ccccc4o3)CC2)cc1` [DDO-02006, 1-(benzo[d]oxazol-2-ylmethyl)-N-(4-fluorobenzyl) piperidin-4-amine dihydrochloride] displayed an IC50 against hKv1.5 potassium channel of 3.24 ± 0.29 µM.

`COc1ccccc1CNC1CCN(Cc2nc3ccccc3o2)CC1` [DDO-02007, 1-(benzo[d]oxazol-2-ylmethyl)-N-(2-methoxybenzyl)piperidin-4-amine dihydrochloride]: at hKv1.5 potassium channel, the 50% inhibitory concentration (IC50) was greater than 20 µM.

Regarding `Cc1ccc(CNC2CCN(Cc3nc4ccccc4o3)CC2)cc1` [DDO-02008, 1-(benzo[d]oxazol-2-ylmethyl)-N-(4-methylbenzyl)piperidin-4-amine dihydrochloride], the half-maximal inhibitory concentration (IC50) against hKv1.5 potassium channel is greater than 20 µM.

On hKv1.5 potassium channel, `c1ccc(CCNC2CCN(Cc3nc4ccccc4o3)CC2)cc1` [DDO-02009, 1-(benzo[d]oxazol-2-ylmethyl)-N-phenethylpiperidin-4-amine hydrochloride] had a half-inhibitory concentration (IC50) greater than 20 µM.

On to `CS(=O)(=O)Nc1cccc([C@H](c2ccc(F)cc2)C(c2cccnc2)c2cccnc2)n1` [MK-0448], for which, in the series on Kv1.5 (known Kv1.5 inhibitor), the IC50 is 0.0108 µM.

For `Cc1ccc(S(=O)(=O)Nc2ccccc2C(=O)N(Cc2ccccc2)Cc2cccnc2)cc1` [S-0100176], the half-maximal inhibitory concentration (IC50) in the series with Kv1.5 (known Kv1.5 inhibitors) was 0.7 µM.

`COc1ccc(CCO[C@@H]2CCCC[C@H]2N2CC[C@@H](O)C2)cc1OC` [Vernakalant hydrochloride]: the IC50 with Kv1.5 (known Kv1.5 inhibitors) was 13 µM.

The values above are taken from paper PMC8757610, “Design, synthesis, and biological evaluation of arylmethylpiperidines as Kv1.5 potassium channel inhibitors” (Journal of Enzyme Inhibition and Medicinal Chemistry, 2022).
